Assay results taken from publication PMC11220870, “From X-ray crystallographic structure to intrinsic thermodynamics of protein–ligand binding using carbonic anhydrase isozymes as a model system” (IUCrJ, 2024).

How the values were obtained:
CA I = CA I (Homo sapiens, UniProt P00915); settings: intrinsic, 37°C
Experimental: Intrinsic thermodynamic parameters of all pairs were determined by TSA and ITC (for calculations we used Gibbs energy obtained by TSA and enthalpy from ITC measurements).

CA IX [1] = biological target: T1, CA IX (Homo sapiens, UniProt Q16790); assay: Intrinsic Gibbs energy of binding (TSA); settings: 37°C, Fig. 5
T1 construct: made in house

CA IX [2] = system: CA IX; parameters: method as in earlier work; settings: depending on the isozyme, ref Dudutienė et al., 2014, Matulienė et al., 2022, Zakšauskas et al.; cited from earlier work

Sequence of CA I (P00915 whole entry): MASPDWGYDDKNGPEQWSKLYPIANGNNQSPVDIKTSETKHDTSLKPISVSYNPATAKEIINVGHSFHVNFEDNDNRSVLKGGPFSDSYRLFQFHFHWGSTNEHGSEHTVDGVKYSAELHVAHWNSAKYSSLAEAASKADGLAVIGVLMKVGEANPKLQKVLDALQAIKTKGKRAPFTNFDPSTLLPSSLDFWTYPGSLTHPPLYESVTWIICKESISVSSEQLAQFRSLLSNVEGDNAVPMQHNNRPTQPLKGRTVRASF

| ΔHint (CA I) | intrinsic standard Gibbs energy of binding (CA IX [1]) | SMILES | selectivity toward CA IX over remaining isozymes (CA IX [2]) |
| --- | --- | --- | --- |
| -17.9 kcal/mol | – | CCCSc1c(F)c(F)c(S(N)(=O)=O)c(F)c1F [VD12-05] | – |
| – | -17.9 kcal/mol | COC(=O)c1cc(S(N)(=O)=O)c(SC2CCCCC2)cc1Cl [EA2-3] | a hundred- to a million-fold |
